Entries after “also recorded” stand apart in the source; their conditions may differ. Marks after values point to notes of the source that are not given here.
How the values were obtained:
Format in all cases: in vivo
Tygress tomato plants [1] = assay: Foliar nutrient concentration at 6 WAT, open-field tomato (Examples 7-10); conditions: 6 WAT, open field; for Foliar B concentration of tomato plants / Foliar Ca concentration of tomato plants / Foliar Cu concentration of tomato plants / Foliar Fe concentration of tomato plants / Foliar K concentration of tomato plants / Foliar Mg concentration of tomato plants / Foliar Mn concentration of tomato plants / Foliar N concentration of tomato plants / Foliar P concentration of tomato plants / Foliar Zn concentration of tomato plants: product rate as Table 17
Procedure, shortened: (§1)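 Open-field Florida trial, spring 2008: transplants at 4-true-leaf stage on drip-irrigated raised beds were foliar-sprayed at 3 and 5 WAT (BIOX-CM at 4 and 5 WAT) at 60 gal/acre with non-ionic surfactant. Most recent mature leaves were sampled at 6 WAT. Tomato fruit was USDA-graded and analysed for minerals.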

[2] = test system: Patriot bell pepper plants; assay: Foliar nutrient concentration at 6 WAT, open-field bell pepper (Examples 7-10); conditions: for Foliar B concentration of bell pepper plants / Foliar Ca concentration of bell pepper plants / Foliar Cu concentration of bell pepper plants / Foliar Fe concentration of bell pepper plants / Foliar K concentration of bell pepper plants / Foliar Mg concentration of bell pepper plants / Foliar Mn concentration of bell pepper plants / Foliar N concentration of bell pepper plants / Foliar P concentration of bell pepper plants / Foliar Zn concentration of bell pepper plants: product rate as Table 17
Procedure, shortened: as §1

Aristotle bell pepper = assay: Marketable yield per plant, greenhouse Fall 2007, bell pepper; conditions: for Marketable yield per plant, Pepper: foliar application at 3 and 7 WAT, rates not separated; for Bell pepper yield compared with control (in words): foliar applications, P<0.05
Protocol: The following experiments were performed in a green house during the fall of 2007 at GCREC, Balm, University of Florida. Fifteen products, at 3 different application rates were examined. The plot size was 2-gallon pots. Crop set-up, procedures and variables were as follows.
Transplants of ‘Florida-47’ tomato and ‘Aristotle’ bell pepper plants in the 4-true leaf stage (about 6 inches tall) were planted in 2-gal pots on Aug. 27, 2007. Pots were filled with a commercially available planting medium. This medium was selected based on the mineral composition of the products to be applied without providing significant nutritional inputs to the crops. Irrigation was provided with drip lines delivering between 0.50 and 0.33 gal/day/pot for tomato and bell pepper, respectively, and the crops were irrigated three times per day. No foliar pesticides were necessary.
There were four control treatments corresponding to each target micronutrient in which non-Fe, non-Mn, non-Zn or non-Cu pots received all other essential nutrients under non-limiting conditions.
Treatments were applied at three rates (high, medium and low) obtained from the estimated concentration of Zn, Fe, Cu, and Mn foliarly-applied in tomato and bell pepper in field situations (Table 1). Products were weighed and dissolved in 200 ml of deionized water with a non-ionic surfactant and applied to the newly-matured open leaves of each crop at 3 and 7 weeks after transplant (WAT). Treated pots were isolated during application to avoid cross-contamination of other treatments.
Medium nutrient concentration was determined 1 week before treatment. The mineral composition of the medium was 26.8 ppm NH4—N, 49 ppm NO3—N, 15.8 ppm P, 91.2 ppm K, 82.3 ppm Ca, 58.2 ppm Mg, 23.9 ppm Na, 125.6 ppm S, 1.33 ppm Fe, 0.39 ppm Mn, 0.35 ppm Zn, 0.05 pp, Cu, 0.04 ppm B, 0 ppm Mo, 0.73 ppm Al, and 12.1 ppm Si. The pH of the medium was 5.36 and the electric conductivity was 1.38 mS/cm. The foliar tissue analysis was performed at 6 WAT and the concentration of N, P, K, Mg, Ca, S, B, Zn, Mn, Fe, and Cu was determined by a commercial laboratory. Plant toxicity was determined at 4 WAT by using a 0-10 visual scale, where 0=no visible damage and 10=total plant death. Marketable fruit weight was collected 2 times in bell pepper and 4 times in tomato following USDA standards.
Data were analyzed using a general linear model, and means were separated using orthogonal contrasts at the 5% significance level.

Tygress tomato plants [3] = assay: Nutrient concentration of tomato fruits at 10 WAT, open field (Examples 7-10); conditions: for B concentration of tomato fruits / Ca concentration of tomato fruits / Cu concentration of tomato fruits / Fe concentration of tomato fruits / K concentration of tomato fruits / Mg concentration of tomato fruits / Mn concentration of tomato fruits / N concentration of tomato fruits / P concentration of tomato fruits / Zn concentration of tomato fruits: 10 WAT, open field, product rate as Table 17
Procedure, shortened: as §1

Molecule | Foliar B concentration of tomato plants (Tygress tomato plants [1]) [ppm] | Foliar Ca concentration of tomato plants (Tygress tomato plants [1]) [%] | Foliar Cu concentration of tomato plants (Tygress tomato plants [1]) | Foliar Fe concentration of tomato plants (Tygress tomato plants [1]) [ppm] | Foliar K concentration of tomato plants (Tygress tomato plants [1]) | Foliar Mg concentration of tomato plants (Tygress tomato plants [1]) [%] | Foliar Mn concentration of tomato plants (Tygress tomato plants [1]) | Foliar N concentration of tomato plants (Tygress tomato plants [1]) [%] | Foliar P concentration of tomato plants (Tygress tomato plants [1]) | Foliar Zn concentration of tomato plants (Tygress tomato plants [1]) | Foliar B concentration of bell pepper plants ([2]; 6 WAT, open field) [ppm] | Foliar Ca concentration of bell pepper plants ([2]; 6 WAT, open field) [%] | Foliar Cu concentration of bell pepper plants ([2]; 6 WAT, open field) | Foliar Fe concentration of bell pepper plants ([2]; 6 WAT, open field) [ppm] | Foliar K concentration of bell pepper plants ([2]; 6 WAT, open field) [%] | Foliar Mg concentration of bell pepper plants ([2]; 6 WAT, open field) [%] | Foliar Mn concentration of bell pepper plants ([2]; 6 WAT, open field) [ppm] | Foliar N concentration of bell pepper plants ([2]; 6 WAT, open field) [%] | Foliar P concentration of bell pepper plants ([2]; 6 WAT, open field) [%] | Foliar Zn concentration of bell pepper plants ([2]; 6 WAT, open field) | other results
CSCCC(O)C(=O)[O-].CSCCC(O)C(=O)[O-].[Cu+2] (centres unmarked) [BIOX-Cu, Cu-HMTBA] | 42 | 1.8 | 407 b ppm | 83 | 5.6% | 0.58 | 211 ppm | 5.0 | 0.21% | 306 ppm | 42 | 1.8 | 407 b ppm | 83 | 5.6 | 0.58 | 211 | 5.0 | 0.21 | 306 ppm | Marketable yield per plant, Pepper (Aristotle bell pepper): 4.0* lb/plant; Bell pepper yield compared with control (in words) (Aristotle bell pepper): significantly increased; B concentration of tomato fruits (Tygress tomato plants [3]): 21 ppm; Ca concentration of tomato fruits (Tygress tomato plants [3]): 0.2%; Cu concentration of tomato fruits (Tygress tomato plants [3]): 21 ppm; Fe concentration of tomato fruits (Tygress tomato plants [3]): 77 ppm; K concentration of tomato fruits (Tygress tomato plants [3]): 8.5%; Mg concentration of tomato fruits (Tygress tomato plants [3]): 0.39%; Mn concentration of tomato fruits (Tygress tomato plants [3]): 37 ppm; N concentration of tomato fruits (Tygress tomato plants [3]): 4.4%; P concentration of tomato fruits (Tygress tomato plants [3]): 0.67%; Zn concentration of tomato fruits (Tygress tomato plants [3]): 294 ppm
CSCCC(O)C(=O)[O-].CSCCC(O)C(=O)[O-].[Mn+2] (centres unmarked) [BIOX-M, Mn-HMTBA] | 70 | 1.7 | 417 ppm | 88 | 4.6 b % | 0.56 | 470 a ppm | 4.4 | 0.19 b % | 266 b ppm | 59 | 4.2 | 462 ppm | 124 | 3.4 | 0.52 | 436 | 4.4 | 0.25 | 63 ppm | Foliar concentration of Mn of tomato plants, statement (Tygress tomato plants [1]): significant increase; also recorded: highest foliar concentration of Mn; also recorded: significantly higher foliar Mn content; Foliar concentration of P of tomato plants compared to control, statement (Tygress tomato plants [1]): significant increase; Marketable yield per plant, Pepper (Aristotle bell pepper): 3.9* lb/plant; Bell pepper yield compared with control (in words) (Aristotle bell pepper): significantly increased; B concentration of tomato fruits (Tygress tomato plants [3]): 23 ppm; Ca concentration of tomato fruits (Tygress tomato plants [3]): 0.2%; Cu concentration of tomato fruits (Tygress tomato plants [3]): 23 b ppm; Fe concentration of tomato fruits (Tygress tomato plants [3]): 81 b ppm; K concentration of tomato fruits (Tygress tomato plants [3]): 8.0%; Mg concentration of tomato fruits (Tygress tomato plants [3]): 0.37%; Mn concentration of tomato fruits (Tygress tomato plants [3]): 43 b ppm; N concentration of tomato fruits (Tygress tomato plants [3]): 4.2%; P concentration of tomato fruits (Tygress tomato plants [3]): 0.65%; Zn concentration of tomato fruits (Tygress tomato plants [3]): 209 b ppm
EDTA chelated zinc [BIOX-EDZ] | 44 | 1.9 | 371 ppm | 90 | 5.2% | 0.69 | 207 ppm | 4.9 | 0.24% | 310 bc ppm | 59 | 4.2 | 421 ppm | 121 | 3.2 | 0.47 | 284 | 4.2 | 0.24 | 234 a ppm | Foliar Zn concentration of tomato plants, statement (Tygress tomato plants [1]): All treatments except BIOX-EDZ resulted in significantly higher foliar Zn concentrations; Foliar Zn concentration of bell pepper plants compared to control, statement ([2]; 6 WAT, open field): significantly higher foliar concentration of Zn; B concentration of tomato fruits (Tygress tomato plants [3]): 22 ppm; Ca concentration of tomato fruits (Tygress tomato plants [3]): 0.2%; Cu concentration of tomato fruits (Tygress tomato plants [3]): 23 ppm; Fe concentration of tomato fruits (Tygress tomato plants [3]): 82 ppm; K concentration of tomato fruits (Tygress tomato plants [3]): 8.5%; Mg concentration of tomato fruits (Tygress tomato plants [3]): 0.37%; Mn concentration of tomato fruits (Tygress tomato plants [3]): 43 ppm; N concentration of tomato fruits (Tygress tomato plants [3]): 4.4%; P concentration of tomato fruits (Tygress tomato plants [3]): 0.66%; Zn concentration of tomato fruits (Tygress tomato plants [3]): 1018 ppm
Fe-HMTBA [BIOX-Fe] | 21 | 0.2 | 21 ppm | 77 | 8.2% | 0.37 | 37 ppm | 4.2 | 0.69% | 294 ppm |  |  |  |  |  |  |  |  |  |  | Foliar nutrient concentration: B ([2]; bell pepper plants at 6 WAT): 39 ppm; Foliar nutrient concentration: Ca ([2]; bell pepper plants at 6 WAT): 2.2%; Foliar nutrient concentration: Cu ([2]; bell pepper plants at 6 WAT): 369 ppm; Foliar nutrient concentration: Fe ([2]; bell pepper plants at 6 WAT): 112 ppm; Foliar nutrient concentration: K ([2]; bell pepper plants at 6 WAT): 6.0%; Foliar nutrient concentration: Mg ([2]; bell pepper plants at 6 WAT): 0.66%; Foliar nutrient concentration: Mn ([2]; bell pepper plants at 6 WAT): 251 ppm; Foliar nutrient concentration: N ([2]; bell pepper plants at 6 WAT): 5.0%; Foliar nutrient concentration: P ([2]; bell pepper plants at 6 WAT): 0.20%; Foliar nutrient concentration: Zn ([2]; bell pepper plants at 6 WAT): 318 ppm; Nutrient concentration of tomato fruits: B (Tygress tomato plants [3]; tomato fruits at 10 WAT): 21 ppm; Nutrient concentration of tomato fruits: Ca (Tygress tomato plants [3]; tomato fruits at 10 WAT): 0.2%; Nutrient concentration of tomato fruits: Cu (Tygress tomato plants [3]; tomato fruits at 10 WAT): 21 ppm; Nutrient concentration of tomato fruits: Fe (Tygress tomato plants [3]; tomato fruits at 10 WAT): 77 ppm; Nutrient concentration of tomato fruits: K (Tygress tomato plants [3]; tomato fruits at 10 WAT): 8.2%; Nutrient concentration of tomato fruits: Mg (Tygress tomato plants [3]; tomato fruits at 10 WAT): 0.37%; Nutrient concentration of tomato fruits: Mn (Tygress tomato plants [3]; tomato fruits at 10 WAT): 37 ppm; Nutrient concentration of tomato fruits: N (Tygress tomato plants [3]; tomato fruits at 10 WAT): 4.2%; Nutrient concentration of tomato fruits: P (Tygress tomato plants [3]; tomato fruits at 10 WAT): 0.69%; Nutrient concentration of tomato fruits: Zn (Tygress tomato plants [3]; tomato fruits at 10 WAT): 294 ppm

From patent US20110098177A1, “METHODS AND COMPOSITIONS OF PLANT MICRONUTRIENTS” (NOVUS INTERNATIONAL INC., priority 2006, published 2011)
